Results as given in patent EP2664619B1, “Purine derivatives as tools for screening anti-Alzheimer compounds” (Manros Therapeutics, priority 2012, dated 2013).

What was measured:
Aβ42 production = experiment: Sandwich ELISA measurement of Aβ42 levels in supernatant of treated N2a-APP695 cells; assay type: cell-based, Mouse
Protocol: (§1) Mouse neuroblastoma cells (N2a cells) or N2a-APP695 cells (N2a cell line stably transfected with APP695, an amyloid precursor protein) were cultured in an essential medium composed of Dulbecco's minimal essential medium (DMEM) and of OptiMEM® (1:1, v/v) (Gibco®) containing 0.2 mg/mL Geniticin (Geneticin® Selective Antibiotic, Gibco®) and 5 % fetal bovine serum (FBS, Gibco®, EU approved origin) in a humidified, 5% CO2 incubator at 37°C. Routinely, cells were split without use of Trypsin every 4/5 days. They were first rinsed with PBS (Gibco) and detached from the plate bottom using 4 mL Versene (Gibco) at room temperature for 3-4 min. 8 mL of fresh medium were added to the cell suspension, and the mix was centrifuged for 3 min at 1,000 rpm. The cell pellet was resuspended in fresh medium before seeding (1/10 dilution) in new flasks.
The N2a-APP695 cells were seeded at 10.000 cells/well in a 96 well plate with modified media (0.5% FBS) and incubated overnight. Cells were treated with fresh media comprising different compounds according to the invention (equal quantity of DMSO sold by Sigma®). They were then incubated for 18h in a humidified, 5% CO2 incubator.
Purines according to the invention were added at various concentrations to N2a-APP695.
The plate was finally centrifuged to remove cell fragments before collecting supernatant samples for amyloids levels determination.
(§2) Then, Aβ38, Aβ40 and Aβ42 levels were measured in a sandwich ELISA (Enzyme-Linked ImmunoSorbent Assay) using a combination of monoclonal antibody 6E10 (mAb 6E10) (sold by Covance® under the reference SIG-39320) and biotinylated polyclonal Aβ38, Aβ40 or Aβ42 antibodies (provided by Dr. P.D. Mehta, IBR, Staten Island, USA).
A solution of 100 µl mAb 6E10 diluted in carbonate-bicarbonate buffer, pH 9.6, was coated in the wells of microtiter plates (Maxisorp™ sold by Nunc®) and incubated at 4°C overnight. The plates were then washed with PBST (PBS tablets sold by Gibco®) containing 0.05% Tween-20 (Sigma®), and blocked for 1 h with 1% BSA (Sigma®) in PBST (PBS tablets sold by Gibco®) containing 0.05 Tween-20 (Sigma®) to avoid nonspecific binding.
Following a washing step, samples were added and incubated for 2 hours at room temperature (RT) and then at 4°C overnight. Plates were then washed before incubation with biotinylated polyclonal antibody diluted in PBST (PBS tablets sold by Gibco®) containing 0.05 Tween-20 (Sigma®) + 0.5% BSA at room temperature for 75 minutes.
After a washing step, streptavidin-horseradish peroxidase conjugate (Streptavidin poly-HRP, Thermo Scientific Pierce®), diluted in PBS + 1% BSA, was added and incubation was carried out for 45 min at room temperature. After washing, 100 µl of o-phenylenediamine dihydrochloride (OPD tablets, Invitrogen®) diluted in citrate buffer pH 5.0 were added. The reaction was stopped after 15 min with the addition of 100 µl 1 N sulfuric acid.
A range of known concentrations of Aβ38, Aβ40 and Aβ42, ranging from 0.01 to 10 ng/mL for Aβ38 and Aβ42, and ranging from 0.001 to 10 ng/mL for Aβ40, were use as a reference scale to determine the concentrations of Aβ38, Aβ40 and Aβ42 obtained.
(§3) The optical density was finally measured at 490 nm in a microELISA reader (sold by BioTek Instrument, reference E1 800, Gen 5 software).
The EC50 of the molecules tested were thus calculated.

Aβ40 [1] = experiment: Sandwich ELISA measurement of Aβ40 levels in supernatant of treated N2a-APP695 cells; assay type: cell-based, Mouse
Protocol: as §1, with “8 mL of fresh medium were added to the cell suspension, and the mix was centrifuged for 3 min at 1,000 rpm. The cell pellet was resuspended in fresh medium before seeding (1/10 dilution) in new flasks.” left out
(§4) The N2a-APP695 cells were seeded at 10.000 cells/well in a 96 well plate with modified media (0.5% FBS) and incubated overnight. Cells were treated with fresh media comprising different compounds according to the invention (equal quantity of DMSO sold by Sigma®). […]
as §2, with “USA). […]” for “USA).”
as §3

Aβ38 [2] = experiment: Sandwich ELISA measurement of Aβ38 levels in supernatant of treated N2a-APP695 cells; assay type: cell-based, Mouse
Protocol: as §1, with “8 mL of fresh medium were added to the cell suspension, and the mix was centrifuged for 3 min at 1,000 rpm. The cell pellet was resuspended in fresh medium before seeding (1/10 dilution) in new flasks.” left out
as §4
as §2, with “USA). […]” for “USA).”
as §3

Aβ38 [3] = experiment: Effect of γ-secretase inhibitors/modulator on Aβ38 level in Aftin-treated cells; assay type: cell-based; details: for IC50: γ-secretase inhibitor, Aftin-treated cells
Source text: (§5) To investigate the importance of γ-secretases in the effects of Aftins according to the invention, two potent pharmacological inhibitors of γ-secretases, DAPT (N-[(3,5-Difluorophenyl)acetyl]-L-alanyl-2-phenyl]glycine-1,1-dimethylethyl ester) and BMS 299897 were used.

Aβ42 = experiment: Effect of γ-secretase inhibitors/modulator on Aftin-induced production of Aβ42; assay type: cell-based; details: for IC50: γ-secretase inhibitor, Aftin-induced production
Source text: as §5

Aβ40 [4] = experiment: Effect of γ-secretase inhibitors on Aβ40 level in Aftin-treated cells; assay type: cell-based; details: γ-secretase inhibitor
Source text: as §5

γ-secretases = details: read-out: reported IC50 values on γ-secretases; cited from earlier work
N2a-APP695 cells = experiment: MTS cell viability assay in the same wells as the ELISA
Protocol: To measure cell viability, the MTS assay (CellTiter 96® AQueous One Solution Cell Proliferation Assay, Promega) was used in the same wells as the capture ELISA assay. 20µl of MTS reagent (3-(4,5-dimethylthiazol-2-yl)-5-(3-carboxymethoxyphenyl)-2-(4-sulfophenyl)-2H-tetrazolium) was added in each well containing 100µl of media and incubation was then proceeded for 3 hours (37°C, 5% CO2 and 95% humidity). Measurements were made on OD 490Δ630 nm (excitation and emission wavelengths) using a microELISA reader (BioTek Instrument, El 800, Gen 5 software).

[5] = N2a-APP695 cells, 18 hours, dose-dependent, Figure 3
[6] = N2a-APP695 cells, 1 µM added simultaneously with increasing concentrations of Aftin-5

CCN(CC)c1ccc(C)c(Nc2nc(-c3ccc(-n4cnc(C)c4)cc3)cs2)c1 ['Torrey Pines' compound, reference compound]
Aβ42 production (Aβ42 production; [5]): down-regulates
Aβ40 production (Aβ40 [1]; [5]): down-regulates
Aβ38 level (Aβ38 [2]; [5]): up-regulation
Aβ38 regulation (Aβ38 [3]; [6]): up-regulation
Aβ42 regulation (Aβ42; [6]): down-regulation
effect on Aftin-5 induced Aβ42 up-regulation and Aβ38 down-regulation (Aβ42; N2a-APP695 cells, added 1 h prior to 100 µM Aftin-5, dose dependent, Figure 4): inhibition of Aftin-5 effect

C[C@H](NC(=O)Cc1cc(F)cc(F)c1)C(=O)N[C@H](C(=O)OC(C)(C)C)c1ccccc1 [DAPT]
IC50 (Aβ38 [3]): 112 nM
IC50 (Aβ40 [4]): 61.8 nM
IC50 (Aβ42): 42.5 nM
IC50 (γ-secretases): 25 to 56 nM

CC[C@H](CO)Nc1nc(N(C)c2ccccc2)c2ncn(C(C)C)c2n1 [Aftin-5, (2R)-2-[[9-isopropyl-6-(N-methylanilino)purin-2-yl]amino]butan-1-ol]
EC50 (Aβ42 production; Mus musculus, N2a-APP695 cells, 18h incubation, ELISA assay, read-out: EC50 (µM) at inducing Aβ42 production): 10.6 µM
increase of the levels of Aβ42 production (Aβ42 production; dose-response curves, Figure 1, 18 hours, up to): > 900%
levels of Aβ40, maximum increase (Aβ40 [1]; dose-response curves, Figure 1, 18 hours): ≤ 40%
levels of Aβ38, decrease (Aβ38 [2]; dose-response, in parallel to the increase of Aβ42): > 70%
Toxicity (N2a-APP695 cells; MTS assay, N2a-APP695 cells, class symbol): - ("-" means that the tested compound is non toxic with a concentration higher than 100 µM)
cytotoxic effects on cells (N2a-APP695 cells; highest concentration tested (150 µM) or longest exposure (5 days)): did not show any cytotoxic effects

C[C@H](c1ccc(F)cc1CCCC(=O)O)N(c1cc(F)ccc1F)S(=O)(=O)c1ccc(Cl)cc1 [BMS 299897]
IC50 (Aβ38 [3]): 88 nM
IC50 (Aβ40 [4]): 55.9 nM
IC50 (Aβ42): 28.8 nM
IC50 (γ-secretases): 8 to 300 nM
